The values below come from patent publication US20250352615A1, “COMPOSITIONS AND METHODS FOR THE MODULATION OF PIEZO1 AND TRPV4” (Duke University, priority 2021, published 2025).

For test [1], the target named is T1, Piezo1 (Mus musculus, UniProt E2JF22).
T1 construct: endogenous in cells; host or cells: freshly isolated mouse pancreatic acini (WT = Piezo1 fl/fl on a C57BL/6J background)
The experiment in a line: Calcium imaging of Yoda1 (Piezo1)-mediated [Ca2+]i in pancreatic acini. The class given is cell-based. The following applies: pancreatic acini, bath calcium 2 mM, Yoda1 25 μM. The protocol: (§1) Mouse pancreatic acini were isolated using a standard collagenase digestion protocol. Isolated acini were plated on a thin-layered, Matrigel-coated, glass-bottom, culture plate (MatTek, P35G-0-14-C). Freshly isolated acini were used in each experiment.
(§2) Calcium imaging in pancreatic acini was performed as previously described. The chemicals used in calcium imaging experiments included the following: Yoda1 (Tocris; 5586), GsMTx4 (Abcam; ab141871), 5′,6′-EET (Santa Cruz Biotechnology; sc-221066), AA (Millipore Sigma; A3611), HC067047 (Tocris; 4100), GSK1016790A (Millipore Sigma; G0798), RN1734 (Tocris; 3746), AACOCF3 (Tocris; 1462), YM26734 (Tocris; 2522), GF109203X (Tocris; 0741), and CCK8 (Sigma-Aldrich).

Test [2] concerns the target T2, Piezo1 (Homo sapiens, UniProt Q92508).
T2 construct: Fresh, human pancreatic tissue was digested with collagenase as described above with modifications; endogenous in cells; host or cells: primary human pancreatic stellate cells from fresh human pancreatic tissue
Put plainly: Calcium imaging of Piezo1-mediated [Ca2+]i in human PSCs. The class given is cell-based. The conditions noted are these: Yoda1 25 μM, quiescent PSCs. As for the experimental part:
Mouse and human PSCs were isolated using collagenase digestion. Modified Krebs Henseleit Buffer (KHB) solution (100 mL) was prepared as previously described by Romac et al., Nat. Commun. 9(1):1715 (2018). Pancreatic tissue was digested with 2 mg of collagenase NB 8 (SERVA, catalog 17456) dissolved in 10 mL of modified KHB solution containing 1 mg soybean trypsin inhibitor (SBTI 1-S; Millipore Sigma, catalog T9003) and 20 mg BSA (Thermo Fisher Scientific; BP1600-100). Digestion solution (5 mL) was used to inflate the pancreas. Pancreas with 5 mL of digestion solution was incubated in a shaking water bath for 10 minutes at 37° C. The solution was then discarded. The pancreas tissue was cut into small pieces and digested with fresh 5 mL digestion buffer. Tissue was incubated in a shaking water bath for 40 minutes at 37° C. The cells were then separated from tissue by pipetting up-down with a 10 mL pipette and passed sequentially through a 70 μm and a 40 μm cell strainer. The filtrate was centrifuged at 150×g for 3 minutes at room temperature. The cells were washed with 10 mL Leibovitz's media (Thermo Fisher Scientific, catalog 11415-064), passed through a 20 μm filter, and centrifuged at 80×g for 3 minutes at room temperature. The supernate was removed, and isolated stellate cells were plated on a thin-layered Matrigel-coated glass bottom culture plate (MatTek, P35G-0-14-C). […] The cell viability following Yoda1 treatment was analyzed using the Live/Dead cell imaging kit (Thermo Fisher Scientific, catalog R37601). […]
Fluid shear stress and mechanical pushing applied to stellate cells were achieved as previously described by Wang et al., J. Clin. Invest. […] The fluid shear stress (T) was calculated using the formula: τ=η×[…] φ for μ-Slide I 0.4 Luer and τ=η×330.4 φ for μ-Slide I 0.2 Luer, where r represents viscosity of the medium and φ represents flow rate (according to the manufacturer's instructions, Ibidi). […]

Test [3] has as its system pancreatic acini. Put plainly: Mitochondrial depolarization in pancreatic acini (TMRE). The class given is cell-based, mouse. The following applies: Yoda1 50 μM. The protocol:
Live-cell mitochondrial depolarization was analyzed using the mitochondrial labeling dye, TMRE. Isolated acini were plated on a thin-layered, Matrigel-coated, glass-bottom culture plate with DMEM/F12 and 10% FBS media and placed in a CO2 incubator for 1 hr at 37° C. After 1 hr, the acini were incubated with TMRE (200 nM) in the bath buffer containing 140 mM NaCl, 4.7 mM KCl, 2.0 CaCl2, 1 mM MgCl2, 10 mM HEPES, and 10 mM glucose (pH adjusted to 7.4 with NaOH) for 30 minutes. The TMRE dye was washed and replaced with fresh bath buffer. The images were captured with a Zeiss Axio observer Z1 microscope with MetaMorph software (Molecular Devices) at intervals of 600 ms. TMRE was excited at 540-600 nm and emission collected at 585-675 nm. Carbonyl cyanide 4-(trifluoromethoxy) phenylhydrazone (FCCP), which uncouples the oxidative phosphorylation process and depolarizes mitochondria, was used as a positive control. A maximum of 2 mitochondrial puncta were taken per acinar cell.

The target of test [4] is T3, TRPV4 (Mus musculus, UniProt Q9EPK8).
T3 construct: endogenous in cells; host or cells: freshly isolated mouse pancreatic acini (C57BL/6J WT)
Put plainly: Calcium imaging of TRPV4-mediated [Ca2+]i in pancreatic acini (agonists, shear stress, Yoda1 sustained phase). The class given is cell-based. The conditions noted are these: Yoda1. The protocol: as §1
Parallel-plate fluid flow chambers (μ-Slide I 0.4 Luer, and μ-Slide I 0.2 Luer from Ibidi GmbH) were used to measure the shear stress-induced changes in intracellular calcium, mitochondrial depolarization, and trypsin activation. The constant flow rate with shear stress (T) was determined as follows: τ=η×[…] φ for μ-Slide I 0.4 Luer and τ=η×330.4 φ for μ-Slide I 0.2 Luer, where η=viscosity of the medium and φ=flow rate (according to the manufacturer's instructions, Ibidi).
as §2

T3 sequence (Q9EPK8 whole entry): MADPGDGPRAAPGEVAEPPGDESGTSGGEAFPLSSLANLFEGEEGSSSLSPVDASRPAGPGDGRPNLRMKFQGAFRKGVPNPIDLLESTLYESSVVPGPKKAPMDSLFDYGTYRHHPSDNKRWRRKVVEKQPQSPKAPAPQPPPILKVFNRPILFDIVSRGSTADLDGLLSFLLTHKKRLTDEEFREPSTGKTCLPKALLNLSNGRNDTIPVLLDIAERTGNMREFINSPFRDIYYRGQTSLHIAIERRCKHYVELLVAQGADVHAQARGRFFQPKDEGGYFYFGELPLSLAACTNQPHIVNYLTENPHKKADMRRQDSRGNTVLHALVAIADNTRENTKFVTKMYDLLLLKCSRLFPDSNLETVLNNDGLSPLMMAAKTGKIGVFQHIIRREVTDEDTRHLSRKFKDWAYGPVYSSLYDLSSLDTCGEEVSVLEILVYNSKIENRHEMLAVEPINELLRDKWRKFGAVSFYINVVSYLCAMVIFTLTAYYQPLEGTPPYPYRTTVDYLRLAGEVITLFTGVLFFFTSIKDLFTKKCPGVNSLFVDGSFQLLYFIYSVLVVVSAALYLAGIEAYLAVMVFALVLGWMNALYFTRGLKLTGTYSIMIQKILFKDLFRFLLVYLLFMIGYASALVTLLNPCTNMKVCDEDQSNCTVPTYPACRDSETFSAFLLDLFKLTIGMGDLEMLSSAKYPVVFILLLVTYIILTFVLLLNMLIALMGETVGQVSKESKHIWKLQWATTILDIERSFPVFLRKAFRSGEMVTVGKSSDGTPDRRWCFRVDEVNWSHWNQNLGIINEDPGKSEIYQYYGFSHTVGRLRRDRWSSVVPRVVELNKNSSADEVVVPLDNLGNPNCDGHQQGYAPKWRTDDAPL
T2 sequence (Q92508 whole entry): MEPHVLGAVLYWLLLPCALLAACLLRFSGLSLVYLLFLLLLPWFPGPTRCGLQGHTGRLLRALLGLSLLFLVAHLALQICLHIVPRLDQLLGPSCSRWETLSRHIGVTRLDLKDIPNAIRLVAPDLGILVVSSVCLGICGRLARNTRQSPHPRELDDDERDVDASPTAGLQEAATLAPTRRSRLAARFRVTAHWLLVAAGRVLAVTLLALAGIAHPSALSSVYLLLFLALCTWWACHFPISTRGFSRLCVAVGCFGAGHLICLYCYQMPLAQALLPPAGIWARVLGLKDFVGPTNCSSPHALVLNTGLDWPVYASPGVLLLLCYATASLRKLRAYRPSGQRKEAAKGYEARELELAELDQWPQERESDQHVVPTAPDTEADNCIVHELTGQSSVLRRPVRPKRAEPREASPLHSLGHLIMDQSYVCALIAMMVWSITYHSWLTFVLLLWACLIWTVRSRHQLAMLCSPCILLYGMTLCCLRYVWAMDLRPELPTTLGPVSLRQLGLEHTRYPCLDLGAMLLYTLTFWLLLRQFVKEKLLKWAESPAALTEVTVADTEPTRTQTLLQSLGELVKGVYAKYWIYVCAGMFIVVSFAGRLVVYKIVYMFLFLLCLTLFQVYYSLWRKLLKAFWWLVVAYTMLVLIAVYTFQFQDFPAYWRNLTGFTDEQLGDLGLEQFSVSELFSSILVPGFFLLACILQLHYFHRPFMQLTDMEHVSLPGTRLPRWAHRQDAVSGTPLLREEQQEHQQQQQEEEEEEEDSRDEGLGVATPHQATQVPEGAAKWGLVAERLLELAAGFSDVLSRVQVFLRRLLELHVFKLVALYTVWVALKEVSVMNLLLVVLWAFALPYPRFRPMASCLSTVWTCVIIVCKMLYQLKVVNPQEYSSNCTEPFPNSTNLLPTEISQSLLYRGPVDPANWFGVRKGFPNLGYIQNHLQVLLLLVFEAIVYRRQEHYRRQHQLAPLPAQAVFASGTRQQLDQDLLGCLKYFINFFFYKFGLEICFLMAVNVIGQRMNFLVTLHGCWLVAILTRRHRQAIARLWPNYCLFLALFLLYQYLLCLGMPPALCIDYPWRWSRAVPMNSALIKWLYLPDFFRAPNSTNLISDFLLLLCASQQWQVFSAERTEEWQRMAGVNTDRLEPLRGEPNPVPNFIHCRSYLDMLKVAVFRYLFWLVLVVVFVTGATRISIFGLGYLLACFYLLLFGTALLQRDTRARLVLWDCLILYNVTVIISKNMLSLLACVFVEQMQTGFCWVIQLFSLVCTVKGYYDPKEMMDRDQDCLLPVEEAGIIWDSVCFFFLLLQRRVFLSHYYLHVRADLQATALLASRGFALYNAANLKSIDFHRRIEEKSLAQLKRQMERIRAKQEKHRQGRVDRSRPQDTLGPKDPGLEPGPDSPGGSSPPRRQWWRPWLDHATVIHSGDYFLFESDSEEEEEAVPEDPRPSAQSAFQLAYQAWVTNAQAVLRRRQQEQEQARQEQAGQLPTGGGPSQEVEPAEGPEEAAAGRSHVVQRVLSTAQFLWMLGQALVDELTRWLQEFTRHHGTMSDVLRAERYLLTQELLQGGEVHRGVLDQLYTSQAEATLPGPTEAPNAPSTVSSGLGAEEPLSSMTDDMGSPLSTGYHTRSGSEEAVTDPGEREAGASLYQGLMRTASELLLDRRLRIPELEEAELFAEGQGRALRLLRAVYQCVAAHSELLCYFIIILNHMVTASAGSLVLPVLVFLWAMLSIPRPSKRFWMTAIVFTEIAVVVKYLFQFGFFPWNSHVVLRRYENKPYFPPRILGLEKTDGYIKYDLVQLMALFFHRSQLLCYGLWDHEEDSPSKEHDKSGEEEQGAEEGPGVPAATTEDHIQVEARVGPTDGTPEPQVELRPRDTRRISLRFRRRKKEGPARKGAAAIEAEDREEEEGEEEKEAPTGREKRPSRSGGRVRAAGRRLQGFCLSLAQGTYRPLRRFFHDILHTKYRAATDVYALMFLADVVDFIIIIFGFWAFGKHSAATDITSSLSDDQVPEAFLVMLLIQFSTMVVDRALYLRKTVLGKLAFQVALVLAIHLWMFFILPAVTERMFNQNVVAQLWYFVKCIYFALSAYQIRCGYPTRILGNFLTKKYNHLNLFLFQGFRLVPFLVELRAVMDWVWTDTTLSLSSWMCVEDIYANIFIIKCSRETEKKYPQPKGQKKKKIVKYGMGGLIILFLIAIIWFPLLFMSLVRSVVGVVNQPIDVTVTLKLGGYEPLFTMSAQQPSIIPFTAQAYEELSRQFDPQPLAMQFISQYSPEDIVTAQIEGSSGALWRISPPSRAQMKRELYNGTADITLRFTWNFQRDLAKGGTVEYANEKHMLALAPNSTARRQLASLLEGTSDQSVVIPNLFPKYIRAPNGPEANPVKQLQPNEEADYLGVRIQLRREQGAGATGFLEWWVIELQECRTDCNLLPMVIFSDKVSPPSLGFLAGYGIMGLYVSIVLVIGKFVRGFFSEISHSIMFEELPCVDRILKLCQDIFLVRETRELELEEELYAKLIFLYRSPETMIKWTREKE

Take `Clc1cccc(Cl)c1CSc1nnc(-c2cnccn2)s1` [Yoda1]: the “[Ca2+]i response to Yoda1” value in test [1] is reported as “initial transient Ca^2+ rise, followed by sustained intracellular calcium elevation”; in test [2], “caused calcium overload in quiescent pancreatic stellate cells”. Further, in test [3], the “mitochondrial depolarization in Piezo1aci-KO cells” value is “did not depolarize mitochondria”. The “rate of mitochondrial depolarization compared with CCK (10 nM)” value in test [3] is reported as “occurred at a higher rate than that induced with CCK”. Moreover, the “TMRE fluorescence intensity (mitochondrial depolarization)” value in test [3] (WT acini) was “significantly decreased TMRE fluorescence intensity”. Also, the “time to mitochondrial depolarization after application” value in test [3] (CCK 10 nM) was at most 3 min. Also, the “[Ca2+]i response in acini from TRPV4-KO mice” value in test [4] is “only transient elevation in [Ca^2+]i”.
